Tests used:
Format in all cases: cell-based
SW480 colon cancer cells = test: Cell viability assay (CellTiter-Blue); conditions: Homo sapiens; for EC50: 96 h, SW480 cell viability, four days, CellTiter-Blue
Outline: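 Fluorescence from resazurin reduced to resorufin by metabolically active cells was the read-out, taken after ~3 h with CellTiter-Blue.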

IL-6 (THP-1 cells) = test: IL-6 inhibition in LPS-stimulated THP-1 cells (HTRF); conditions: Homo sapiens; IL6 by HTRF, THP-1 cells, 500 ng/mL LPS, 22 hours
Outline: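 THP-1 cells, pre-cultured 24 h in 1% FBS medium, treated with compound 2 h at 37 °C, then stimulated with 500 ng/mL LPS for 22 h. Secreted IL-6 measured by HTRF as the 665/620 nm ratio. Values normalized to DMSO; EC50 from four-parameter fit, duplicates.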

[1] = test system: primary human mesenchymal stem cells (hMSCs); test: Induction of chondrogenesis in hMSCs (Rhodamine B / Nile Red nodule imaging); conditions: for Emax: maximum activity relative to TGF-β3 (10 ng/mL) positive control, read-out: Max. Activity as % TGF-β3 activity; for EC50: concentration required to induce 50% levels of chondrogenesis vs TGF-β3 positive control, read-out: Conc (nM) of 50% TGF-β3 activity
Text: Representative compounds were screened using primary human mesenchymal stem cells (hMSCs) to determine their ability to induce chondrogenesis (process by which cartilage is developed).
Primary human mesenchymal stem cells (hMSCs) were purchased from Lonza (Walkersville, Md.) and expanded in Mesenchymal Stem Cell Growth Media (Lonza). Cells between passage 3 and 6 were used for the experiments.
Area of nodules in each well was normalized to the average of 3 DMSO treated wells on the same plate using Excel (Microsoft Inc.). The normalized averages (fold change over DMSO) of 2 or 3 replicate wells for each compound concentration were calculated. Due to solubility limitations of some of the compounds, curve fitting was incomplete leading to inaccurate EC50 determinations.
Using TGF-β3 as a positive control, the concentration of representative compounds required to induce 50% levels of chondrogenesis is reported. In addition, the maximum activity of each compound and the respective dose that each compound reached maximum chondrogenesis activity is reported.

[2] = test system: Wnt activity (Sp5-Luc reporter, SW480 colon carcinoma cells); test: Screening assay for Wnt activity (Sp5-Luc reporter gene assay in SW480 cells); conditions: Homo sapiens; Sp5-Luc reporter, SW480 cells, incubated overnight
Outline: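 SW480 colon carcinoma cells stably carrying Sp5 promoter (eight TCF/LEF sites)-driven firefly luciferase, plated at 4,000 cells/well in 1% FBS medium and incubated overnight at 37° C. Luminescence normalised to DMSO-only cells; EC50 from four-parameter variable-slope nonlinear regression.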

[3] = test system: primary human fibroblasts derived from IPF patients (LL29 cells) treated with TGF-β1; test: Inhibition of the fibrotic process (αSMA staining) in TGF-β1-treated fibroblasts; conditions: Fibroblast, 96 h; for EC50: % αSMA-positive LL29 cells, TGF-β1 20 ng/mL, 4 days
Outline: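 LL29 fibroblasts from IPF patients, 1,500 cells/well in F12 with 1% FBS, stimulated with TGF-β1; TGF-β1 plus DMSO wells as controls. Incubation 4 days, then SYTOX green 1 μM final for 30 min at room temperature. Fibrotic response read as αSMA staining.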

| SMILES | EC50 (SW480 colon cancer cells) [nM] | EC50 (IL-6 (THP-1 cells)) [nM] | Emax [1] [%] | EC50 [2] [nM] | EC50 [3] [nM] | EC50 [1] [nM] | inhibition at 10 µM (SW480 colon cancer cells; SW480, 96 h, read-out: percent inhibition at 10 μM) [%] | inhibition at 10 µM ([3]; read-out: percent inhibition at 10 μM) [%] |
| --- | --- | --- | --- | --- | --- | --- | --- | --- |
| CN1CCN(c2nccc3[nH]c(-c4n[nH]c5ccc(-c6cncc(NC(=O)c7ccccc7)c6)cc45)cc23)CC1 [Compound 235, N-(5-(3-(4-(4-Methylpiperazin-1-yl)-1H-pyrrolo[3,2-c]pyridin-2-yl)-1H-indazol-5-yl)pyridin-3-yl)benzamide] | 3620 | 754 | 35 | 2140 | 1610 | – | – | – |
| CC(C)(C)C(=O)Nc1cncc(-c2ccc3[nH]nc(-c4cc5c(N6CCCCC6)nccc5[nH]4)c3c2)c1 [Compound 176, N-(5-(3-(4-(Piperidin-1-yl)-1H-pyrrolo[3,2-c]pyridin-2-yl)-1H-indazol-5-yl)pyridin-3-yl)pivalamide] | 1350 | 350 | 35 | 1320 | 650 | – | – | – |
| CCNCc1cncc(-c2ccc3[nH]nc(-c4cc5c(-c6ccccc6F)nccc5[nH]4)c3c2)c1 [Compound 62, N-((5-(3-(4-(2-Fluorophenyl)-1H-pyrrolo[3,2-c]pyridin-2-yl)-1H-indazol-5-yl)pyridin-3-yl)methyl)ethanamine] | 1280 | 2860 | 59 | 3360 | 2490 | 900 | – | – |
| CC(C)(C)CC(=O)Nc1cncc(-c2ccc3[nH]nc(-c4cc5c(N6CCCCC6)nccc5[nH]4)c3c2)c1 [Compound 184, 3,3-Dimethyl-N-(5-(3-(4-(piperidin-1-yl)-1H-pyrrolo[3,2-c]pyridin-2-yl)-1H-indazol-5-yl)pyridin-3-yl)butanamide] | 1540 | 8900 | 79 | 2020 | 1470 | 900 | – | – |
| O=C(Nc1cncc(-c2ccc3[nH]nc(-c4cc5c(-c6cccnc6)nccc5[nH]4)c3c2)c1)C1CCC1 [Compound 105, N-(5-(3-(4-(Pyridin-3-yl)-1H-pyrrolo[3,2-c]pyridin-2-yl)-1H-indazol-5-yl)pyridin-3-yl)cyclobutanecarboxamide] | 555 | 40 | 172 | 111 | 2420 | 10 | – | – |
| O=C(Nc1cncc(-c2ccc3[nH]nc(-c4cc5c(N6CCCCC6)nccc5[nH]4)c3c2)c1)C1CCC1 [Compound 189, N-(5-(3-(4-(Piperidin-1-yl)-1H-pyrrolo[3,2-c]pyridin-2-yl)-1H-indazol-5-yl)pyridin-3-yl)cyclobutanecarboxamide] | 906 | 232 | 34 | 955 | 337 | – | – | – |
| Fc1ccccc1-c1nccc2[nH]c(-c3n[nH]c4ccc(-c5cncc(CN6CCCCC6)c5)cc34)cc12 [Compound 71, 3-(4-(2-Fluorophenyl)-1H-pyrrolo[3,2-c]pyridin-2-yl)-5-(5-(piperidin-1-ylmethyl)pyridin-3-yl)-1H-indazole] | 1000 | 1090 | 16 | 2800 | 1940 | – | – | – |
| Nc1cncc(-c2ccc3[nH]nc(-c4cc5c(-c6ccccc6F)nccc5[nH]4)c3c2)c1 [Compound 59, 5-(3-(4-(2-Fluorophenyl)-1H-pyrrolo[3,2-c]pyridin-2-yl)-1H-indazol-5-yl)pyridin-3-amine] | > 10000 | 9540 | 70 | 60 | > 10000 | 2700 | 43.5 | 46.6 |
| CCCC(=O)Nc1cncc(-c2ccc3[nH]nc(-c4cc5c(-c6ccc(F)cc6)nccc5[nH]4)c3c2)c1 [Compound 45, N-(5-(3-(4-(4-Fluorophenyl)-1H-pyrrolo[3,2-c]pyridin-2-yl)-1H-indazol-5-yl)pyridin-3-yl)butyramide] | 262 | 929 | 142 | 520 | 263 | 900 | – | – |
| COc1cncc(-c2ccc3[nH]nc(-c4cc5c(-c6ccsc6)nccc5[nH]4)c3c2)c1 [Compound 676, 5-(5-Methoxypyridin-3-yl)-3-(4-(thiophen-3-yl)-1H-pyrrolo[3,2-c]pyridin-2-yl)-1H-indazole] | 500 | 9120 | 39 | 808 | 2100 | – | – | – |
| O=C(Cc1ccccc1)Nc1cncc(-c2ccc3[nH]nc(-c4cc5c(N6CCCCC6)nccc5[nH]4)c3c2)c1 [Compound 178, 2-Phenyl-N-(5-(3-(4-(piperidin-1-yl)-1H-pyrrolo[3,2-c]pyridin-2-yl)-1H-indazol-5-yl)pyridin-3-yl)acetamide] | 2870 | 1520 | 73 | 2350 | 505 | 900 | – | – |
| O=C(Nc1cncc(-c2ccc3[nH]nc(-c4cc5c(-c6cccc(F)c6)nccc5[nH]4)c3c2)c1)C1CC1 [Compound 20, N-(5-(3-(4-(3-Fluorophenyl)-1H-pyrrolo[3,2-c]pyridin-2-yl)-1H-indazol-5-yl)pyridin-3-yl)cyclopropanecarboxamide] | 179 | 39 | 91 | 50 | 167 | 2700 | – | – |
| COc1cncc(-c2ccc3[nH]nc(-c4cc5c(-c6ccoc6)nccc5[nH]4)c3c2)c1 [Compound 692, 3-(4-(Furan-3-yl)-1H-pyrrolo[3,2-c]pyridin-2-yl)-5-(5-methoxypyridin-3-yl)-1H-indazole] | 227 | 4530 | 20 | 309 | 741 | – | – | – |
| CCC(=O)Nc1cncc(-c2ccc3[nH]nc(-c4cc5c(N6CCCCC6)nccc5[nH]4)c3c2)c1 [Compound 169, N-(5-(3-(4-(Piperidin-1-yl)-1H-pyrrolo[3,2-c]pyridin-2-yl)-1H-indazol-5-yl)pyridin-3-yl)propionamide] | 296 | 48 | 244 | 445 | 149 | 10 | – | – |
| CCNCc1cncc(-c2ccc3[nH]nc(-c4cc5c(N6CCCCC6)nccc5[nH]4)c3c2)c1 [Compound 174, N-((5-(3-(4-(Piperidin-1-yl)-1H-pyrrolo[3,2-c]pyridin-2-yl)-1H-indazol-5-yl)pyridin-3-yl)methyl)ethanamine] | 963 | 456 | 301 | 2960 | 1460 | 900 | – | – |
| c1cc2[nH]c(-c3n[nH]c4ccc(-c5cncnc5)cc34)cc2cn1 [Compound 279, 5-(Pyrimidin-5-yl)-3-(1H-pyrrolo[3,2-c]pyridin-2-yl)-1H-indazole] | 2300 | 1840 | 22 | 1480 | 686 | – | – | – |
| c1cncc(-c2ccc3[nH]nc(-c4cc5cnccc5[nH]4)c3c2)c1 [Compound 256, 5-(Pyridin-3-yl)-3-(1H-pyrrolo[3,2-c]pyridin-2-yl)-1H-indazole] | 68 | 53 | 341 | 40 | 106 | 10 | – | – |
| Fc1ccc(-c2nccc3[nH]c(-c4n[nH]c5ccc(-c6cncnc6)cc45)cc23)cc1 [Compound 55, 3-(4-(4-Fluorophenyl)-1H-pyrrolo[3,2-c]pyridin-2-yl)-5-(pyrimidin-5-yl)-1H-indazole] | 1050 | 1570 | 194 | 1510 | 326 | 10 | – | – |
| O=C(Nc1cncc(-c2ccc3[nH]nc(-c4cc5cnccc5[nH]4)c3c2)c1)C1CCCCC1 [Compound 275, N-(5-(3-(1H-Pyrrolo[3,2-c]pyridin-2-yl)-1H-indazol-5-yl)pyridin-3-yl)cyclohexanecarboxamide] | 255 | 77 | 155 | 285 | 110 | 30 | – | – |
| CCCCC(=O)Nc1cncc(-c2ccc3[nH]nc(-c4cc5cnccc5[nH]4)c3c2)c1 [Compound 271, N-(5-(3-(1H-Pyrrolo[3,2-c]pyridin-2-yl)-1H-indazol-5-yl)pyridin-3-yl)pentanamide] | 491 | 149 | 67 | 275 | 192 | 900 | – | – |

— patent publication US10463651B2, “3-(1H-pyrrolo[3,2-C]pyridin-2-YL)-1H-indazoles and therapeutic uses thereof” (Samumed, LLC, priority 2015, dated 2019)
